This is an account of results in a melting point compilation (Tetko et al.; mined from patent text by program, amines drawn as free bases though some values may be those of a salt).

Each structure is given as a SMILES string.

For the compound `Nc1c(N=O)c(=O)n(CCC2CCCCC2)c(=O)n1CCC1CCCCC1`, the melting point (usually the temperature, or range, at which the solid turns liquid) was in the range of 231 to 233 °C.

As for `O=C(O)c1ncsc1-c1cc(F)cc(F)c1`, the melting point came out at 200 °C.

`N#Cc1ccc(Nn2ccnc2)cc1` yielded a melting point of 162 °C.

For the compound `CCOC(=O)c1cc(CCCOc2c(C)cc(-c3noc(C)n3)cc2C)on1`, the melting point was 95 to 96 °C.

Compound `CN(C)C(=O)C1CN(C)c2nc3cc(F)c(F)cc3cc2C1=O` (stereo not drawn) yielded a melting point of 206 °C.

For `C[C@@H]1CNC(=O)c2cc3c(Cl)cccc3n21`, the melting point was in the range of 180 to 184 °C.

`NCC#CC1(Cl)C=CC=CC1C(=O)c1ccccc1Cl` (stereo not drawn) registered a melting point of 81 to 82 °C.

Regarding `COc1nc(C)c(C)nc1N(C)C(=O)N1CCN(c2cc(C)cc(C)c2)CC1`, the melting point lay within 94 to 96 °C.

In turn, `COc1nnc(-c2ccc3ncn(-c4ccc(OC(F)(F)F)cc4)c3c2)o1` came in with a melting point of 150 to 151 °C.

`CC(=O)Nc1cc2c(cc1O)CCN(Cc1ccccc1)CC2c1ccccc1` (stereo not drawn) returned a melting point of 180 °C.

Turning to `CCCCc1nc2ccccn2c1Cc1ccc(-c2ccccc2C(=O)O)cc1`, the melting point was 196 °C.

`Fc1cncc(-n2ccc(Cl)n2)c1` gave a melting point of 77 to 82 °C.

As for `C1=C(c2cccc(CNCCOc3cccc4ccoc34)c2)CCC1`, the melting point came to 126 °C.

On to `Cc1cc(C2(C(F)(F)F)CC(C#N)=C(c3ccccc3)O2)ccc1NC(=O)OC(C)(C)C` (stereo not drawn), for which the melting point fell in the range of 46 to 49 °C.

`CC1=C(C)CC2C(C1)C(=O)NS2=O` (stereo not drawn) registered a melting point of 135 to 137 °C.

In turn, `CCOC(=O)COc1ccc(C=O)c(O)c1` yielded a melting point of 97 to 99 °C.

As for `CC(=Cc1cc(-n2[nH]c3c(c2=O)CCCC3)ccc1Cl)C(=O)O`, the melting point stood at 278 °C.

`NS(=O)(=O)c1ccc(N2CC(CO)OC2=O)cc1` (stereo not drawn) had a melting point of 154 to 156 °C.

As to `CN1CCN(c2cc3c(F)cccc3c(=O)[nH]2)CC1CO` (stereo not drawn), the melting point was in the range of 216 to 217 °C.

On to `CC(=O)C(Cc1nsc2ccc(-n3c(=O)cc(C(F)(F)F)n(C)c3=O)cc12)C(=O)O` (stereo not drawn), for which the melting point lay within 191 to 193 °C.

The compound `COc1ccc2c(c1)c(Cc1nc(-c3cccc([N+](=O)[O-])c3)cs1)c(C)n2C(=O)c1ccc(Cl)cc1` showed a melting point of 162 to 164 °C.

`Cc1cccc(-c2n[nH]cc2-c2ccc(F)c(-c3ccc(S(=O)(=O)CCO)cc3)c2)n1`: the melting point was 88 to 90 °C.

On to `COc1cc(-c2nnn[nH]2)ccc1Cc1cn(C)c2ccc(NC(=O)CC3CCCC3)cc12`, for which the melting point lay within 242 to 243 °C.

As for `CCCCCCCNC(=O)Oc1ccc2c(c1)CCCN2C`, the melting point turned out to be 60 °C.

`CCCC1(C)CC(C)c2cc(C(C)=O)c(O)c(C)c2O1` (stereo not drawn) came in with a melting point of 73 °C.

Take `CN1CCN(c2cccc3ccc(Nc4ccc([N+](=O)[O-])cn4)cc23)CC1`: the melting point fell in the range of 121 to 125 °C.

`CCc1c(-c2ccc(OC)cc2)c2c(CO)cc3cccc1n32` displayed a melting point of 97 to 100 °C.

For `CSc1ncc2cc(CBr)c(=O)n(C3CCCC3)c2n1`, the melting point was 103 to 105 °C.

`O=C1CCC(c2c[nH]c3ccccc23)CC1` gave a melting point of 123 to 125 °C.

Compound `COC(=O)Cc1ccc(CNC(=O)C2Cc3c(OC)cccc3N2S(=O)(=O)c2ccc(-c3cccc(C(F)(F)F)c3)cc2)cc1` (stereo not drawn) came in with a melting point of 80 °C.

Compound `CCCCCCCCCCCCCCCCS(N)(=O)=O` came in with a melting point of 98 to 100 °C.

Take `Cc1nc2c(c(=O)[nH]1)-c1cc(S(=O)(=O)Nc3ccc(C(N)=O)cc3)ccc1CC2`: the melting point was 190 °C.

On to `O=c1c2c(Cl)cc(Cl)cc2n(Cc2ccccc2)c(=O)n1Cc1cccc(F)c1`, for which the melting point lay within 112 to 116 °C.

Turning to `CC(O)c1cccc(C=Cc2ccc3cc(F)ccc3n2)c1` (stereo not drawn), the melting point was in the range of 107 to 109 °C.

Consider `N#Cc1nn(-c2c(Cl)cc(C(F)(F)F)cc2Cl)c(SCc2ccccc2)c1S(=O)(=O)C(F)(F)F`, for which the melting point lay within 117 to 119 °C.

`COc1cc(CNC(=O)c2ccc3n2Cc2ccccc2N(C(=O)CSc2ccc(Br)cc2)C3)ccc1O` had a melting point of 168 °C.

In turn, `O=C(COc1ccc(CCC(=O)C(F)(F)F)cc1)NC(c1ccc(Cl)cc1)c1ccc(Cl)cc1` gave a melting point of 145 to 146 °C.

In turn, `CC1(C)CC(=O)Nc2ccc(Br)cc21` displayed a melting point of 176 to 179 °C.

The compound `CCC(=O)c1ccc(OC(C)c2ccc(Cl)cc2)cc1` (stereo not drawn) gave a melting point of 70 to 71 °C.

`O=C(O)COc1cc(Cl)ccc1C(=O)NCc1ccc(Cl)c(Cl)c1` had a melting point of 177 to 178 °C.

The compound `CC(CCC(=O)O)C1CCC2C3C(=O)CC4CC(OC5CCCCO5)CCC4(C)C3CCC12C` (stereo not drawn) yielded a melting point of 157 to 159 °C.

Consider `CN1CCc2cc([N+](=O)[O-])c(O)cc2C(c2ccc3c(c2)CCC3)C1` (stereo not drawn), for which the melting point fell in the range of 58 to 63 °C.

`N#CC(C(=O)Nc1ccc(S(=O)(=O)C(F)(F)F)cc1)=C(O)C1CC1` had a melting point of 168 to 170 °C.

The compound `Cc1c(C)c(N2CCN(c3ccc(C(C)C)cc3)CC2)c(C)c2c1OC(C)(CO)C2` (stereo not drawn) gave a melting point of 160 to 163 °C.

`CN(C)c1ccc(-c2nc(S)nnc2-c2ccc(F)cc2)cc1` registered a melting point of 262 to 264 °C.

Consider `CC1(C)CCc2c(N3CCOCC3)nc3sc4c(NCCCN5CCCC5=O)ncnc4c3c2C1`, for which the melting point is 210 °C.

Consider `Cc1cnc(-c2ccc3c(c2)c2cc(-c4ccc(Cl)cc4Cl)c(=O)n(C)c2n3C)o1`, for which the melting point was in the range of 289 to 292 °C.

The compound `COc1ccc(C2(C)C(=O)Nc3cc(OC)cc(Cl)c3C2=O)cc1` (stereo not drawn) yielded a melting point of 222 to 224 °C.

`N#Cc1ccc(-c2ccc(-c3ccc(C#N)o3)o2)cc1` gave a melting point of 194 to 195 °C.

`CN(C)Nc1c(-c2c(F)cc(F)cc2F)c(Cl)nc2ncnn12`: the melting point lay within 165 to 168 °C.

In the case of `N#Cc1ccc(OCc2cccnc2)cc1F`, the melting point was in the range of 105 to 110 °C.

`CC(C)OC(=O)C1=C2SCC(=CC(=O)Sc3ccccc3)N2CC1` had a melting point of 216 to 220 °C.

As for `Cc1ccc(NC(=O)Nc2ccc(-c3c(Cc4ccccc4)sc4ncnc(N)c34)cc2)cc1`, the melting point was 169 to 173 °C.

`COc1c(C=O)cccc1Oc1ccccc1C`: the melting point lay in the range of 53 to 55 °C.

In turn, `CCc1nnc2c(Cl)nc3ccccc3n12` gave a melting point of 158 to 160 °C.

With `Cn1nnc2ccc(C(c3cccs3)n3ccnc3)cc21` (stereo not drawn), the melting point came to 157 °C.

For the compound `CCSCC12CCC(=O)C=C1CCC1C3CC(CC)C(=O)C3(C)CCC12` (stereo not drawn), the melting point amounted to 73 °C.

In turn, `CC1=NN(CCCn2ccnc2)Cc2cc3ccccn3c21` showed a melting point of 162 to 163 °C.

The compound `CC(C)(CC(=O)C(=O)Nc1ccc2c(c1)COC2=O)c1ccccc1` gave a melting point of 132 to 134 °C.

`Cn1c(C#N)c(-c2ccc(F)cc2)c2ncccc2c1=O` had a melting point of 258 to 259 °C.

Consider `N#CCCC1(C(N)=O)c2ccccc2-c2ccccc21`, for which the melting point lay within 148 to 152 °C.

As for `CC(C)(C)c1ccc(C(=O)Nc2cn3cc(Cl)ccc3n2)cc1`, the melting point was in the range of 250 to 251 °C.

In turn, `CC(C)c1cccc(C(C)C)c1NC(=O)Nc1cccc2ccc(Oc3ccc4nc(COc5ccc(CC6SC(=O)NC6=O)cc5)n(C)c4c3)cc12` (stereo not drawn) gave a melting point of 164 to 169 °C.

As to `CC(C)(C)c1nc(-c2ccccc2)[nH]c1C(C)(C)C`, the melting point is 156 to 158 °C.

For the compound `CC(=O)c1cc(I)cc(S(N)(=O)=O)c1`, the melting point fell in the range of 188 to 189 °C.

`c1ccc2c(c1)-c1sccc1C2Cc1ccncc1` (stereo not drawn) registered a melting point of 91 to 93 °C.

In the case of `CC1CCC(C(C)C)C(c2ccc3c(c2)C(c2ccccc2)(C(F)(F)F)c2cc(C4CC(C)CCC4C(C)C)ccc2O3)C1` (stereo not drawn), the melting point was 150 to 151 °C.

Take `CN1C(=O)CN=C(c2ccccn2)c2cc(C#C[Si](C)(C)C)ccc21`: the melting point was 194 to 195 °C.

On to `CCc1nn(CCOP(=O)(O)O)c(CC)c1Oc1cc(C#N)cc(C#N)c1`, for which the melting point was 198 to 199 °C.

In turn, `O=[N+]([O-])c1cc(Cl)cc(C(Cl)c2cc(Cl)cc([N+](=O)[O-])c2O)c1O` displayed a melting point of 180 °C.

Regarding `CC(C)(C)OC(=O)N1CCN(c2nccs2)CC1`, the melting point was 114 to 116 °C.

Compound `N#CCOc1ccc2cc(-c3cc4ccccc4o3)ccc2c1Cl` came in with a melting point of 162 to 163 °C.

Compound `O=C1CCC(=O)N1c1ccncc1` had a melting point of 232 to 235 °C.

`CCOC(=O)NC(=O)C1c2ccccc2Oc2c1cccc2C(F)(F)F` (stereo not drawn) yielded a melting point of 196 to 198 °C.

For the compound `CCCCCCCCCCOc1ccc(NC(=O)c2ccc(OC(C)=O)cc2)cc1OCCCCCCCCCC`, the melting point was found to be 117 °C.

In turn, `CC(C)n1nc(-c2sc(Nc3cccc4ccccc34)nc2-c2ccccc2)ccc1=O` registered a melting point of 239 to 240 °C.

For the compound `COc1ccc2c(c1)C(=O)OC2C(Cl)(Cl)Cl` (stereo not drawn), the melting point lay in the range of 134 to 136 °C.

In the case of `CC(C)(C)OC(=O)Nc1cc(N2CCC(OCCOC3CCCCO3)CC2)c(-c2ccc(F)cc2)cc1NC(=O)CC(=O)c1cccc(-n2ccnc2)c1` (racemic), the melting point is 57 to 58 °C.

`[N-]=[N+]=N[C@@H](Cc1ccccc1)[C@H](O)CO` displayed a melting point of 83 to 84 °C.

The compound `CC(C)/[N+]([O-])=C/c1ccccc1O` yielded a melting point of 36 to 39 °C.

Compound `Cc1noc(C)c1CC(C)(NC(=O)OC1C2CC3CC(C2)CC1C3)C(=O)NCCc1ccccc1` (stereo not drawn) had a melting point of 70 to 73 °C.

Consider `Cc1nc(=O)n(-c2cc(C(=O)OC(C)C)c(Cl)cc2F)c(N)c1C#N`, for which the melting point is 255 to 257 °C.

Take `O=C1CSC(=S)N1N=c1sc2ccc(Cl)cc2s1`: the melting point was 312 to 314 °C.

Turning to `O=c1oc2ccccc2c(=O)n1OS(=O)(=O)C(F)(F)F`, the melting point was 74 to 76 °C.

In turn, `COCCOc1ccc(CCCOC(=O)NS(=O)(=O)NCCc2cccs2)c(Oc2ncc(C(F)(F)F)cc2Cl)c1` showed a melting point of 118 °C.

For the compound `O=C1NC(=O)C(Cc2ccc(OC[C@@H]3CCCN3c3nc4ccccc4s3)cc2)S1` (stereo partly drawn), the melting point is 95 °C.

`COc1cc(Cc2cnc(N)nc2N)c2c(c1OC)OC(C)CC2` (stereo not drawn) registered a melting point of 239 to 240 °C.

`N#Cc1nc(Cl)ccc1[N+](=O)[O-]` came in with a melting point of 115 to 117 °C.
